The values below are quoted from earlier work in US20090291122A1, “Wound Care Treatment Product” (SANO MEDICAL bvba, priority 2006, published 2009).

For the series, the system named is E-coli.

Take `O=[O+][O-]` [Ozone]: the “speed of killing E-coli relative to chlorine” value is given as 3125 times faster than chlorine.
